In US6395771B1, “Paclitaxel derivatives for the treatment of cancer” (Dabur Research Foundation, priority 2000, dated 2002):

How the values were obtained:
[1] = system: breast cancer cells (HBL100); test: MTT cytotoxicity assay, breast cancer cells; type: cell-based; set-up: key: —: Not active; =PT: Activity equivalent to Paclitaxel; <PT: Activity less than Paclitaxel; settings: 24 to 96 hours, potency over paclitaxel
Protocol: (§1) In vitro cytotoxic activity of novel paclitaxel derivatives was determined by performing the MTT cytotoxicity assay (Mosmann T., J Immunological Methods, 65:55; 1983). Briefly, the cultured tumor cells were separately seeded in a 96-well culture plate and co-incubated with paclitaxel or its derivatives dissolved in methanol, dimethyl formamide, dimethyl sulfoxide or isopropyl alcohol with relevant controls at 37° C. in a CO2 incubator. After 24 to 96 hours, the assay was terminated and percent cyotoxicities calculated.

[2] = system: cervical cancer cells (SiHa); test: MTT cytotoxicity assay, cervical cancer cells; type: cell-based; set-up: key: —: Not active; =PT: Activity equivalent to Paclitaxel; <PT: Activity less than Paclitaxel; settings: 24 to 96 hours, potency over paclitaxel
Protocol: as §1

lung cancer cells (L132) = test: MTT cytotoxicity assay, lung cancer cells; type: cell-based; set-up: key: —: Not active; =PT: Activity equivalent to Paclitaxel; <PT: Activity less than Paclitaxel; settings: 24 to 96 hours, potency over paclitaxel
Protocol: as §1

leukemia cells (MOLT-4) = test: MTT cytotoxicity assay, leukemia cells; type: cell-based; set-up: key: —: Not active; =PT: Activity equivalent to Paclitaxel; <PT: Activity less than Paclitaxel; settings: MOLT-4 leukemia cells, 24 to 96 hours, potency over paclitaxel
Protocol: as §1

[3] = system: ovarian cancer cells (PA-1); test: MTT cytotoxicity assay, ovarian cancer cells; type: cell-based; set-up: key: —: Not active; =PT: Activity equivalent to Paclitaxel; <PT: Activity less than Paclitaxel; settings: PA-1 ovarian cancer cells, 24 to 96 hours, potency over paclitaxel
Protocol: as §1

mice = settings: cited from earlier work

SMILES | Potency with respect to paclitaxel, HBL100 [1] | Potency with respect to paclitaxel, SiHa [2] | Potency with respect to paclitaxel, L132 (lung cancer cells (L132)) | Potency with respect to paclitaxel, MOLT-4 (leukemia cells (MOLT-4)) | Potency with respect to paclitaxel, PA-1 [3] | toxic dose (mice; administered in the Cremophor vehicle) | Maximum Tolerated Dose (MTD) (mice; mice, ip administration)
CC(=O)OC1C(=O)C2(C)C(O)CC3OCC3(OC(C)=O)C2C(OC(=O)c2ccccc2)C2(O)CC(OC(=O)C(OC(=O)CNC(=O)CNC(=O)OC(C)(C)C)C(NC(=O)c3ccccc3)c3ccccc3)C(C)=C1C2(C)C (stereo not drawn) [AV-4S] | 3.3 | — | 56.3 | 13.2 | 9.5 |  | 
CC(=O)OC1C(=O)C2(C)C(O)CC3OCC3(OC(C)=O)C2C(OC(=O)c2ccccc2)C2(O)CC(OC(=O)C(OC(=O)CC(C)(C)C(=O)O)C(NC(=O)c3ccccc3)c3ccccc3)C(C)=C1C2(C)C (stereo not drawn) [AV-82B] | >170 | >25.0 | — | — | — |  | 
CC(=O)OC1C(=O)C2(C)C(O)CC3OCC3(OC(C)=O)C2C(OC(=O)c2ccccc2)C2(O)CC(OC(=O)C(OC(=O)c3cccc(C(F)(F)F)c3)C(NC(=O)c3ccccc3)c3ccccc3)C(C)=C1C2(C)C (stereo not drawn) [AV-86B] | <PT | 2.5 |  | — | — |  | 
CC(=O)OC1C(=O)C2(C)C(O)CC3OCC3(OC(C)=O)C2C(OC(=O)c2ccccc2)C2(O)CC(OC(=O)C(OC(=O)c3ccc(F)cc3F)C(NC(=O)c3ccccc3)c3ccccc3)C(C)=C1C2(C)C (stereo not drawn) [AV-103S] |  | 1.4 | — | — | — |  | 
CC(=O)OC1C(=O)C2(C)C(O)CC3OCC3(OC(C)=O)C2C(OC(=O)c2ccccc2)C2(O)CC(OC(=O)C(OC(=O)c3cccc(F)c3F)C(NC(=O)c3ccccc3)c3ccccc3)C(C)=C1C2(C)C (stereo not drawn) [AV-105S] | 3.8 | 1.4 | — | — | — |  | 
CC(=O)OC1C(=O)C2(C)C(O)CC3OCC3(OC(C)=O)C2C(OC(=O)c2ccccc2)C2(O)CC(OC(=O)C(OC(=O)C(OC(C)=O)c3ccccc3)C(NC(=O)c3ccccc3)c3ccccc3)C(C)=C1C2(C)C (stereo not drawn) [AV-125S] | — | — | — | — | =PT |  | 
CC(=O)OC(C)C(=O)OC1CC2OCC2(OC(C)=O)C2C(OC(=O)c3ccccc3)C3(O)CC(OC(=O)C(OC(=O)OCC(Cl)(Cl)Cl)C(NC(=O)c4ccccc4)c4ccccc4)C(C)=C(C(OC(C)=O)C(=O)C12C)C3(C)C (stereo not drawn) [AV-126S] | — | — | — | — | =PT |  | 
CC(=O)CC(=O)OC(C(=O)OC1CC2(O)C(OC(=O)c3ccccc3)C3C4(OC(C)=O)COC4CC(O)C3(C)C(=O)C(OC(C)=O)C(=C1C)C2(C)C)C(NC(=O)c1ccccc1)c1ccccc1 (stereo not drawn) [AV-147A] | — | — | — | — | =PT |  | 
CC(=O)OC1C(=O)C2(C)C(O)CC3OCC3(OC(C)=O)C2C(OC(=O)c2ccccc2)C2(O)CC(OC(=O)C(OC(=O)CSc3ccccc3)C(NC(=O)c3ccccc3)c3ccccc3)C(C)=C1C2(C)C (stereo not drawn) [AV-150S] | — | — | — | — | =PT |  | 
CC(=O)O[C@H]1C(=O)[C@@]2(C)[C@H]([C@H](OC(=O)c3ccccc3)[C@]3(O)C[C@H](OC(=O)[C@H](O)[C@@H](NC(=O)c4ccccc4)c4ccccc4)C(C)=C1C3(C)C)[C@]1(OC(C)=O)CO[C@@H]1C[C@@H]2O [paclitaxel, Paclitaxel] |  |  |  |  |  | > 30 mg/kg | 50 mg/kg
